# Results from ChEMBL document CHEMBL4024706 (Eur J Med Chem, 2017).
# How the values were obtained:
# [1] = target: Tyrosine-protein kinase BTK (Homo sapiens, UniProt Q06187, C481S); test: Irreversible inhibition of recombinant full length 3'-FLAG-tagged BTK C481S mutant (unknown origin) expressed in HEK293T cells assessed as reduction in Y223 phosphorylation measured after 4 hrs by Western blot method; format: cell-based
# OCI-AML-3 = test: Growth inhibition of human OCI-AML3 cells; format: functional; conditions: Homo sapiens, OCI-AML-3
# [2] = target: Tyrosine-protein kinase ABL1 (Homo sapiens) (UniProt P00519); test: Inhibition of wild-type human phosphorylated ABL1 (S229 to K512 residues) expressed in mammalian expression system assessed as residual activity at 1 uM by Kinomescan method relative to control
# [3] = target: Activin receptor type-1-like (Homo sapiens) (UniProt P37023); test: Inhibition of wild-type human ACVRL1 (L164 to Q503 residues) expressed in bacterial expression system assessed as residual activity at 1 uM by Kinomescan method relative to control
# [4] = target: Tyrosine-protein kinase Blk (Homo sapiens) (UniProt P51451); test: Inhibition of wild-type human partial length BLK (G211 to L503 residues) expressed in bacterial expression system assessed as residual activity at 1 uM by Kinomescan method relative to control
# [5] = target: Ephrin type-A receptor 7 (Homo sapiens) (UniProt Q15375); test: Inhibition of wild-type human partial length EPHA7 (Y608 to S912 residues) expressed in bacterial expression system assessed as residual activity at 1 uM by Kinomescan method relative to control
# [6] = target: Ephrin type-B receptor 4 (Homo sapiens) (UniProt P54760); test: Inhibition of wild-type human partial length EPHB4 (H585 to G892 residues) expressed in bacterial expression system assessed as residual activity at 1 uM by Kinomescan method relative to control
# [7] = target: Mitogen-activated protein kinase 1 (Homo sapiens) (UniProt P28482); test: Inhibition of wild-type human full length ERK2 (M1 to S360 residues) expressed in bacterial expression system assessed as residual activity at 1 uM by Kinomescan method relative to control
# [8] = target: Tyrosine-protein kinase Fer (Homo sapiens) (UniProt P16591); test: Inhibition of wild-type human partial length FER (S542 to T822 residues) expressed in bacterial expression system assessed as residual activity at 1 uM by Kinomescan method relative to control
# [9] = target: Fibroblast growth factor receptor 4 (Homo sapiens) (UniProt P22455); test: Inhibition of wild-type human partial length FGFR4 (G402 to E713 residues) expressed in bacterial expression system assessed as residual activity at 1 uM by Kinomescan method relative to control
# [10] = tested on: Receptor-type tyrosine-protein kinase FLT3 (Homo sapiens), P36888 [D835H]; test: Inhibition of human partial length FLT3 D835H mutant (V592 to Y969 residues) expressed in bacterial expression system assessed as residual activity at 1 uM by Kinomescan method relative to control
# [11] = target: Mitogen-activated protein kinase 9 (Homo sapiens) (UniProt P45984); test: Inhibition of wild-type human full length JNK2 (M1 to Q382 residues) expressed in mammalian expression system assessed as residual activity at 1 uM by Kinomescan method relative to control
# [12] = target: Mast/stem cell growth factor receptor Kit (Homo sapiens) (UniProt P10721); test: Inhibition of wild-type human partial length KIT (I571 to D952 residues) expressed in bacterial expression system assessed as residual activity at 1 uM by Kinomescan method relative to control
# [13] = tested on: Mast/stem cell growth factor receptor Kit (Homo sapiens), P10721 [D816V]; test: Inhibition of human partial length KIT D816V mutant (I571 to D952 residues) expressed in bacterial expression system assessed as residual activity at 1 uM by Kinomescan method relative to control
# [14] = target: Mitogen-activated protein kinase kinase kinase 15 (Homo sapiens) (UniProt Q6ZN16); test: Inhibition of wild-type human partial length MAP3K15 (T625 to L932 residues) expressed in mammalian expression system assessed as residual activity at 1 uM by Kinomescan method relative to control
# [15] = tested on: Hepatocyte growth factor receptor (Homo sapiens), P08581 [Y1235D]; test: Inhibition of human partial length MET Y1235D mutant (D1010 to S1367 residues) expressed in bacterial expression system assessed as residual activity at 1 uM by Kinomescan method relative to control
# [16] = target: Myosin light chain kinase (Homo sapiens) (UniProt Q32MK0); test: Inhibition of wild-type human partial length MLCK (D488 to K800 residues) expressed in bacterial expression system assessed as residual activity at 1 uM by Kinomescan method relative to control
# [17] = target: RAF proto-oncogene serine/threonine-protein kinase (Homo sapiens) (UniProt P04049); test: Inhibition of wild-type human partial length RAF1 (I330 to T640 residues) expressed in bacterial expression system assessed as residual activity at 1 uM by Kinomescan method relative to control
# [18] = target: Receptor-interacting serine/threonine-protein kinase 2 (Homo sapiens) (UniProt O43353); test: Inhibition of wild-type human partial length RIPK2 (M1 to K310 residues) expressed in bacterial expression system assessed as residual activity at 1 uM by Kinomescan method relative to control
# [19] = target: Ribosomal protein S6 kinase alpha-4 (Homo sapiens) (UniProt O75676); test: Inhibition of wild-type human partial length C-terminal RPS6KA4 kinase domain 2 (M375 to T705 residues) expressed in mammalian expression system assessed as residual activity at 1 uM by Kinomescan method relative to control
# [20] = target: Ribosomal protein S6 kinase alpha-6 (Homo sapiens) (UniProt Q9UK32); test: Inhibition of wild-type human partial length C-terminal RSK4 kinase domain 2 (I401 to Y711 residues) expressed in bacterial expression system assessed as residual activity at 1 uM by Kinomescan method relative to control
# [21] = target: STE20-like serine/threonine-protein kinase (Homo sapiens) (UniProt Q9H2G2); test: Inhibition of wild-type human partial length SLK (S14 to A307 residues) expressed in bacterial expression system assessed as residual activity at 1 uM by Kinomescan method relative to control
# [22] = target: Serine/threonine-protein kinase 35 (Homo sapiens) (UniProt Q8TDR2); test: Inhibition of wild-type human partial length STK35 (G182 to A534 residues) expressed in bacterial expression system assessed as residual activity at 1 uM by Kinomescan method relative to control
# [23] = target: Testis-specific serine/threonine-protein kinase 1 (Homo sapiens) (UniProt Q9BXA7); test: Inhibition of wild-type human full length TSSK1B (M1 to Q367 residues) expressed in bacterial expression system assessed as residual activity at 1 uM by Kinomescan method relative to control
# [24] = target: Serine/threonine-protein kinase ULK1 (Homo sapiens) (UniProt O75385); test: Inhibition of wild-type human partial length ULK1 (M1 to T309 residues) expressed in mammalian expression system assessed as residual activity at 1 uM by Kinomescan method relative to control
# Sequence of RAF proto-oncogene serine/threonine-protein kinase (Homo sapiens) (P04049 whole entry, the tested form may be a part): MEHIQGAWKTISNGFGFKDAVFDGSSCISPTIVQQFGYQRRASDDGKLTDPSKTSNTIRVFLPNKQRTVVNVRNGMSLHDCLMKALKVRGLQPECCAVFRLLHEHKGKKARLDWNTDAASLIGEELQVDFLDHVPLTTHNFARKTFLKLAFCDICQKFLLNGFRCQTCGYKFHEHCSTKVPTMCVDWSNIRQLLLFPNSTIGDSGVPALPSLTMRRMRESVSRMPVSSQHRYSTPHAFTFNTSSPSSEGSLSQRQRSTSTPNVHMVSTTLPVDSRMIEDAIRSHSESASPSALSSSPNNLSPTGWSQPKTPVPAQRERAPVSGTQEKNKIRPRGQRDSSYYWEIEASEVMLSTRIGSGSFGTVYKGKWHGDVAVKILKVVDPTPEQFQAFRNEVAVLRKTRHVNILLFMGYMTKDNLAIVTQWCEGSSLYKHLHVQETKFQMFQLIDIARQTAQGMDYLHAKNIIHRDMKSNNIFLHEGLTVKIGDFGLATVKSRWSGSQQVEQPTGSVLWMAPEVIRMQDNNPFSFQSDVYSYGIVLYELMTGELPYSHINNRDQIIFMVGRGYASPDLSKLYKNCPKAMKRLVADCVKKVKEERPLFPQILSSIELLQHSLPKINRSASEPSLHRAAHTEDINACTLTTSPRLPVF
# Sequence of Ephrin type-B receptor 4 (Homo sapiens) (P54760 whole entry, the tested form may be a part): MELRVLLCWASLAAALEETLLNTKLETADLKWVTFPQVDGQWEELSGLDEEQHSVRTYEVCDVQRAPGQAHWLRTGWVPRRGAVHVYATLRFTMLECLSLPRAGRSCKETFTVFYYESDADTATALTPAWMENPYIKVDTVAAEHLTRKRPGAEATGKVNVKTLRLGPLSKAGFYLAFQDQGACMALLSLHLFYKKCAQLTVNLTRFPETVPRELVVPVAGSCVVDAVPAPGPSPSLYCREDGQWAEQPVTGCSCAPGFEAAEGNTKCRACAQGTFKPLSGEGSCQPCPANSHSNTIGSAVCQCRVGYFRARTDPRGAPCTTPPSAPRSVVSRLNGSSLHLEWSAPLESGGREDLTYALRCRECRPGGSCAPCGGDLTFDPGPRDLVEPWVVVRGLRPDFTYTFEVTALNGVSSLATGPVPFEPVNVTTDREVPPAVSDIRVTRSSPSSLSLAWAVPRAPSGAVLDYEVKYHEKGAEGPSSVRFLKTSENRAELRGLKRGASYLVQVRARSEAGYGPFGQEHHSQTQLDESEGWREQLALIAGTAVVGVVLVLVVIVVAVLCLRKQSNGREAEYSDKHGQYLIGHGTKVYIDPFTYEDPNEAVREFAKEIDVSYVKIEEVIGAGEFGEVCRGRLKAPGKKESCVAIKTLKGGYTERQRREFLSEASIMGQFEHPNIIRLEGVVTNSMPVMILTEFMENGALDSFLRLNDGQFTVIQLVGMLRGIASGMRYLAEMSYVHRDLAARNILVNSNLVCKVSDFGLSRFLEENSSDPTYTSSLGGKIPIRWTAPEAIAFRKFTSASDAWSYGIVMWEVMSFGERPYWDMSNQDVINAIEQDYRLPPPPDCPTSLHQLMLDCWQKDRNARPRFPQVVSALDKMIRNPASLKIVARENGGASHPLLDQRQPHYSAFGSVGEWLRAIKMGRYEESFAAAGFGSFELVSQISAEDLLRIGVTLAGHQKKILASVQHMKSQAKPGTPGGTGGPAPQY
# Sequence of Tyrosine-protein kinase Blk (Homo sapiens) (P51451 2-505 limits assumed): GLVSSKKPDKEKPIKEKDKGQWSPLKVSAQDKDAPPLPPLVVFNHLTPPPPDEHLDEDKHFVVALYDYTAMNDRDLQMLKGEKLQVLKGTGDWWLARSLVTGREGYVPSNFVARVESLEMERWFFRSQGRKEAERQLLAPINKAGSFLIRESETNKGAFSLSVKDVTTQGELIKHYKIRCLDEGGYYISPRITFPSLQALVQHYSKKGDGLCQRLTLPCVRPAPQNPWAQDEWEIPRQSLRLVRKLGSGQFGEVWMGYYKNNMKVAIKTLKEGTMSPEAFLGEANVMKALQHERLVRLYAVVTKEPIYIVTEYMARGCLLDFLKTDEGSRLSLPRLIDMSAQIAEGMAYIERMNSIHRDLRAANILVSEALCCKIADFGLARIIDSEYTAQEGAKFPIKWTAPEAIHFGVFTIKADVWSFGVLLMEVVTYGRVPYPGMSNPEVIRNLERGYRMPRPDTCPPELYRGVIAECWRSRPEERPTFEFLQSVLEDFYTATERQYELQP
# Sequence of Testis-specific serine/threonine-protein kinase 1 (Homo sapiens) (Q9BXA7 whole entry, the tested form may be a part): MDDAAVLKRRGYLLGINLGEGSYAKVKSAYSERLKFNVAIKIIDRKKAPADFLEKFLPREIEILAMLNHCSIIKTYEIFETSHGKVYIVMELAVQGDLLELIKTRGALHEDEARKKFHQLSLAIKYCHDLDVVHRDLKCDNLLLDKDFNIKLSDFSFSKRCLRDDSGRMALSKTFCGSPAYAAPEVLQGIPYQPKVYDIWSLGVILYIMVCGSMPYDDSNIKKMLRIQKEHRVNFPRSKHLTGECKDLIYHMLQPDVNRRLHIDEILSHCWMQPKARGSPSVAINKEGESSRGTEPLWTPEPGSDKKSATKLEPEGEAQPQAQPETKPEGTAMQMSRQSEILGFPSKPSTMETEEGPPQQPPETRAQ
# Sequence of Fibroblast growth factor receptor 4 (Homo sapiens) (P22455 22-802 limits assumed): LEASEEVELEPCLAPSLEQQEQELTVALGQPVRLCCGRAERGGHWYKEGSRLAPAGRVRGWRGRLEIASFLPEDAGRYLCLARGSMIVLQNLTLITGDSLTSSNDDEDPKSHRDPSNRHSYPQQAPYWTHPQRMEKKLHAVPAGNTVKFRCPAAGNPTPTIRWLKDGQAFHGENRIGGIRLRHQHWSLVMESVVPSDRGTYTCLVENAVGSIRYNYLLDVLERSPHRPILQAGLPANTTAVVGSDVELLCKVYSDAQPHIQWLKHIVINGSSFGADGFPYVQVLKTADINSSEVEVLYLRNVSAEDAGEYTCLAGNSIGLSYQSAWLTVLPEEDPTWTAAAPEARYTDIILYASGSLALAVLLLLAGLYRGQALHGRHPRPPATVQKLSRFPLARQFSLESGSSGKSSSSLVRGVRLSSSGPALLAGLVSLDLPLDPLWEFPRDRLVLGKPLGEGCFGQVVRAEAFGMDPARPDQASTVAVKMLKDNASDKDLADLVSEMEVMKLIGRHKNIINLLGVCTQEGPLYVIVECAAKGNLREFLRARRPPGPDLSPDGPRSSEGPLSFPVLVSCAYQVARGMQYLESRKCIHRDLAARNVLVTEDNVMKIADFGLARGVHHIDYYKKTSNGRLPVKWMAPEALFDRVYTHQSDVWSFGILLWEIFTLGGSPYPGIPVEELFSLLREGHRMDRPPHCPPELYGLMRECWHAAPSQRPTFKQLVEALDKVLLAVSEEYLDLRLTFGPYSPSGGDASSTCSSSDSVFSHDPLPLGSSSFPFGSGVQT
# Sequence of Ribosomal protein S6 kinase alpha-6 (Homo sapiens) (Q9UK32 whole entry, the tested form may be a part): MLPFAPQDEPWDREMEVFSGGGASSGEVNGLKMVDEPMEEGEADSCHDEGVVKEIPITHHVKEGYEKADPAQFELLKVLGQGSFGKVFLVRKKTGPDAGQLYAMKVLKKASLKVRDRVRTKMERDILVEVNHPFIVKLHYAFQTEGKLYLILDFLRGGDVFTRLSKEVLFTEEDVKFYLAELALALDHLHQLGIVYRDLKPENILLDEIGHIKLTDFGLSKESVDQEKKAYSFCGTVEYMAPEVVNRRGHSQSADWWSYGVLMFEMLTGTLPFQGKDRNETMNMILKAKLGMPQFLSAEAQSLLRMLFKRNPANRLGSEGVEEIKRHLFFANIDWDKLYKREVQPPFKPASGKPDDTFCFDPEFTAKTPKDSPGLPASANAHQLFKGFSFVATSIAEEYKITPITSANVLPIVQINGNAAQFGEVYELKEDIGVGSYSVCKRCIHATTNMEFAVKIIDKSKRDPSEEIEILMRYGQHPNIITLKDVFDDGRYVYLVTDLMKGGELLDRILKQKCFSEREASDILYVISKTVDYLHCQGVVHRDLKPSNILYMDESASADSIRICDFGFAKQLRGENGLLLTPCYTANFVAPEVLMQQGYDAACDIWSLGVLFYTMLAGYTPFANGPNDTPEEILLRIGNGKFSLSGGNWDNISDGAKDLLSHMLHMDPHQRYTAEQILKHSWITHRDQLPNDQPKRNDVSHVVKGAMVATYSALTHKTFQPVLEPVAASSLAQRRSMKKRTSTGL
# Sequence of Mitogen-activated protein kinase 9 (Homo sapiens) (P45984 whole entry, looked up, the tested form may be a part): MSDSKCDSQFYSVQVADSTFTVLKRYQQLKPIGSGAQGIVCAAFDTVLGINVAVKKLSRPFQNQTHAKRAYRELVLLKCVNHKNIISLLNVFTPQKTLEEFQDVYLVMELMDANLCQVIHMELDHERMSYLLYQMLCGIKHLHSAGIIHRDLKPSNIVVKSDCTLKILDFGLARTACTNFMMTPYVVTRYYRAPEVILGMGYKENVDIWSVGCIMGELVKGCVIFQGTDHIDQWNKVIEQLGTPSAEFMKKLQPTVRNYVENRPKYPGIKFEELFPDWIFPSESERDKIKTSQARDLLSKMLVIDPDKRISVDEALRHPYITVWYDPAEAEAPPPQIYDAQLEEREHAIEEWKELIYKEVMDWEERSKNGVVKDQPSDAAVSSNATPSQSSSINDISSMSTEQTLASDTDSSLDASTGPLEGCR
# Sequence of Receptor-interacting serine/threonine-protein kinase 2 (Homo sapiens) (O43353 whole entry, the tested form may be a part): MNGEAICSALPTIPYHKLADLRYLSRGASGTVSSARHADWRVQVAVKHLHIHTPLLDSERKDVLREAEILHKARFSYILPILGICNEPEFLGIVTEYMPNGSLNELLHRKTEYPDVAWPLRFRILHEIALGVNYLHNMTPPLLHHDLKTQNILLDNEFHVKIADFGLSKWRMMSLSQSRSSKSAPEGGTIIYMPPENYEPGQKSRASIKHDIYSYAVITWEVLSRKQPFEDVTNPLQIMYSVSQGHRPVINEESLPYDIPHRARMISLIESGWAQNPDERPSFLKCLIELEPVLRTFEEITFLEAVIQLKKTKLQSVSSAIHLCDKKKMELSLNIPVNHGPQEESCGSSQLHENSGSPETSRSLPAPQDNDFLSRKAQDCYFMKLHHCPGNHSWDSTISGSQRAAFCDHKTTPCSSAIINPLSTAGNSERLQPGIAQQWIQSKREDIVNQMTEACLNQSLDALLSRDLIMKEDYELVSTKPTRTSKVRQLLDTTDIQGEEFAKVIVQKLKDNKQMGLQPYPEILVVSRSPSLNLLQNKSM
structure (smiles),measurement,setting,value
C=CC(=O)Nc1cc(Nc2cc(-c3cccc(NC(=O)c4ccc(C(C)(C)C)cc4)c3C)cn(C)c2=O)ccc1C(=O)N1CCOCC1,EC50,[1],> 100 nM
same,GI50,OCI-AML-3,3.8 µM
same,Activity,[2],100%
same,Activity,[3],89%
same,Activity,[4],82%
same,Activity,[5],98%
same,Activity,[6],88%
same,Activity,[7],91%
same,Activity,[8],99%
same,Activity,[9],84%
same,Activity,[10],100%
same,Activity,[11],98%
same,Activity,[12],98%
same,Activity,[13],92%
same,Activity,[14],99%
same,Activity,[15],89%
same,Activity,[16],83%
same,Activity,[17],99%
same,Activity,[18],62%
same,Activity,[19],100%
same,Activity,[20],89%
same,Activity,[21],100%
same,Activity,[22],94%
same,Activity,[23],98%
same,Activity,[24],100%
